# Read-outs that look alike come from different tables or passages of the source.
# How the values were obtained:
# [1] = literature values; cited from earlier work
# pFL-35:pBluescript = assay: Fidelity assay with unlabeled ddNTPs; type: biochemical; settings: compared to JDF-3 P410L/A485T
# Procedure: A second set of fidelity assays was conducted to address the contribution of rhodamine dye to high ddG:dT and ddT:dC misinsertion frequency. A fluorescently labeled primer (2.5 nM pFL35) opposite dT in the template strand was extended, in reactions containing either correct (ddA) or incorrect (ddG) unlabeled ddNTPs (at concentrations of 1.25 nM to 10 nM) ([…]). Similar experiments were performed in which primer extension occured opposite dC in the template strand, in the presence of correct (ddG) or incorrect (ddT) unlabeled ddNTPs (FIG. 28 panel B). Incorporation of ddNMP at the 3′-end of the primer was detected as a shift in primer mobility.
# Fidelity assays using unlabeled ddNTPs (10 μl) contained 2.5 nM primer:template (pFL-35:pBluescript), 1 U DNA polymerase, and 1× reaction buffer. Complementary or non-complementary ddNTP was added to the reaction at concentrations of 0, 1.25, 10, 50, or 100 nM. The reactions were incubated in a Perkin-Elmer 9600 for 25 cycles as follows: 96° C. for 10 s, 50° C. for 5 s, and 60° C. for 30 s, and then analyzed as describe above.
# pBL34A:pBluescript II = assay: Kinetics of TAMRA-ddATP insertion versus TAMRA-ddGTP misinsertion opposite dT; type: biochemical
# Procedure: To determine the kinetics of misinsertion, the steady state Michaelis-Menten Km and Vmax parameters were calculated by incubations of limiting amounts of enzyme (0.1 units or 5 nM) in presence of 50 nM primer:template and varying concentrations of non-complementary rhodamine labeled ddNTP (1 nM to 10,000 nM) for 10 minutes at 60° C. Analysis and quantitations were performed as above.
# To gain more insight into the mechanism of lower fidelity, we determined the misinsertion frequency for the mispair ddG:dT, which was evaluated in terms of relative Km and Vmax values for the wrong versus correct dye-ddNTP. Efficiency of nucleotide misinsertion was determined opposite a DNA template dT, primed with a 34-nucleotide oligomer (pBL34A). Apparent Michaelis constant (Km) and maximum velocity (Vmax) and relative insertion frequencies were measured for ddATP and ddGTP (Table X).
# To determine the kinetics of misinsertion, Km and Vmax values were calculated by incubating limiting amounts of enzyme (0.1 units, 5 nM) in presence of 50 nM primer:template (pBL34A:pBluescript II) and varying concentrations of non-complementary rhodamine-ddGTP (1-10,000 nM) for 10 minutes at 60° C. Analysis and quantitation were performed as above.
# [2] = tested on: pBL25C and Temp-A, Temp-T, Temp-C, or Temp-G; assay: Rhodamine labeled ddNTP incorporation, TAMRA- and R110-ddNTPs (FIG. 16); type: biochemical
# Procedure: These experiments were performed using 1 unit of enzyme, 15 nM primer:template (pBL25C and Temp-A, Temp-T, Temp-C, or Temp-G in four separate reactions), and 50 nM dye-ddNTP (TAMRA- or R110-labeled). The reactions were incubated at 60° C. for 10 minutes and then quenched with ice-cold 0.2 M EDTA (final concentration). The products were purified from unincorporated dye-labeled ddNTPs and analyzed as described above.
# Relative incorporation of rhodamine labeled-ddNTPs by the JDF-3 P410L/A485T and Taq F667Y mutants was determined. We used both TAMRA- and R 110-labeled ddNTPs, and the amount of incorporated dye-ddNTPs was measured in fluorescense units. These experiments were performed using pBL25C as the primer, and Temp-A, Temp-T, Temp-C, or Temp-G as the complementary template in four separate reactions. The only difference between these four primer:template systems is the SNP site, thereby eliminating the possibility that primer:template sequence has an effect on dye-ddNTP incorporation. […] Gardner and Jack had also observed variation in the incorporation of ribonucleotides by the A488L mutant (equivalent to JDF-3 A485) of Vent DNA polymerase (from archaeon Thermococcus litoralis)^15.
# We performed similar rhodamine labeled-ddNTP incorporation experiments using the same number of units of Taq F667Y.
substance,measurement,setting,value
"Taq F667Y: ThermoSequenase, Taq F667Y mutant DNA polymerase from Amersham Pharmacia Biotech",dideoxynucleotide incorporation relative to unmutated / wild type enzyme,[1],3000-8000 fold
same,misincorporation of unlabeled ddNTPs,pFL-35:pBluescript,"greater tendency to misincorporate unlabeled ddG opposite dT, and unlabeled ddT opposite dC"
same,"Km for wrong nucleotide (ddGTP) opposite dT, lower than JDF-3 P410L/A485T",pBL34A:pBluescript II,7 fold
same,"misinsertion frequency for ddG:dT, higher than JDF-3 P410L/A485T",pBL34A:pBluescript II,~17 fold
same,M.F. (M.E./I.E.) misinsertion frequency,pBL34A:pBluescript II; ddG:dT mispair,0.053
same,"misinsertion frequency for ddG:dT, higher than JDF-3 P410L/A485T",pBL34A:pBluescript II; listed as Taq F667Y mutant,approximately 17 fold
same,"I.E. Vmax, TAMRA-ddATP insertion","pBL34A:pBluescript II; opposite dT, pBL34A primer",1.9
same,"M.E. Vmax, TAMRA-ddGTP misinsertion","pBL34A:pBluescript II; opposite dT, pBL34A primer",16.9
same,Km,"pBL34A:pBluescript II; opposite dT, pBL34A primer, read-out: I.E. Km, TAMRA-ddATP insertion",0.6 nM
same,Km,"pBL34A:pBluescript II; opposite dT, pBL34A primer, read-out: M.E. Km, TAMRA-ddGTP misinsertion",100 nM
same,preference order of ddNTP bases,[2],G>C>A>T

# Reference: patent publication US20040009486A1, “Compositions and methods utilizing DNA polymerases” (priority 1999, published 2004)
